Data reported in PubChem BioAssay (NCI).
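Each compound was tested at five concentrations against cells in 96-well plates for 48 hours. GI50 = concentration required for 50% inhibition of growth. TGI: concentration producing complete growth inhibition.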

How the values were obtained:
Experiment in all cases: NCI tumour cell line growth inhibition, 48 h
[1] = system: MALME-3M melanoma
[2] = system: OVCAR-8 ovarian
[3] = system: RXF 393 renal
[4] = system: MCF7 breast
[5] = system: SF-539 CNS
[6] = system: OVCAR-3 ovarian
[7] = system: OVCAR-4 ovarian
[8] = system: TK-10 renal
[9] = system: NCI-H522 lung
[10] = system: SN12C renal
[11] = system: 786-0 renal
[12] = system: A549 NSCLC
[13] = system: LOX IMVI melanoma
[14] = system: DU-145 prostate
[15] = system: RPMI-8226 leukemia
[16] = system: ACHN renal
[17] = system: HOP-92 NSCLC
[18] = system: SK-MEL-5 melanoma
[19] = system: EKVX NSCLC
[20] = system: NCI-H460 lung
[21] = system: HS 578T breast
[22] = system: UACC-257 melanoma
[23] = system: HCT-15 colon
[24] = system: NCI-H23 lung
[25] = system: OVCAR-5 ovarian
[26] = system: M14 melanoma
[27] = system: IGROV1 ovarian
[28] = system: SF-295 CNS
[29] = system: SNB-19 CNS
[30] = system: T-47D breast
[31] = system: HCC-2998 colon
[32] = system: NCI/ADR-RES ovarian
[33] = system: SK-OV-3 ovarian
[34] = system: UACC-62 melanoma
[35] = system: HCT-116 colon
[36] = system: BT-549 breast
[37] = system: KM12 colon
[38] = system: HL-60(TB) leukemia
[39] = system: COLO 205 colon
[40] = system: HOP-62 NSCLC
[41] = system: A498 renal
[42] = system: K-562 leukemia
[43] = system: UO-31 renal
[44] = system: SW-620 colon
[45] = system: MDA-MB-231 breast
[46] = system: SK-MEL-28 melanoma
[47] = system: MDA-MB-435
[48] = system: CAKI-1 renal
[49] = system: U251 CNS
[50] = system: MOLT-4 leukemia
[51] = system: HT29 colon
[52] = system: PC-3 prostate
[53] = system: CCRF-CEM leukemia
[54] = system: SK-MEL-2 melanoma
[55] = system: SF-268 CNS
[56] = system: SNB-75 CNS
[57] = system: NCI-H226 lung
[58] = system: SR leukemia

COc1cccc2[nH]c3c4c(c5c(c3c12)C(=O)N(CN1CCN(C)CC1)C5=O)CCC4
GI50 [1]: 6.43 µM
TGI [1]: 63.2 µM
GI50 [2]: 8.6 µM
TGI [2]: 26.5 µM
GI50 [3]: 3.45 µM
TGI [3]: 13.6 µM
GI50 [4]: 9.27 µM
TGI [4]: 39.7 µM
GI50 [5]: 11.3 µM
TGI [5]: 26 µM
GI50 [6]: 13.7 µM
TGI [6]: 34.2 µM
GI50 [7]: 8.03 µM
TGI [7]: 26.9 µM
GI50 [8]: 6.85 µM
TGI [8]: 28.3 µM
GI50 [9]: 8.95 µM
TGI [9]: > 56.9 µM
GI50 [10]: 11.2 µM
TGI [10]: 33.9 µM
GI50 [11]: 13.3 µM
TGI [11]: 31.8 µM
GI50 [12]: 8.49 µM
TGI [12]: 25.6 µM
GI50 [13]: 11.8 µM
TGI [13]: 40.7 µM
GI50 [14]: 9.22 µM
TGI [14]: 21.6 µM
GI50 [15]: 4.6 µM
TGI [15]: 23.8 µM
GI50 [16]: 5.81 µM
TGI [16]: 36.4 µM
GI50 [17]: 15.1 µM
TGI [17]: 44.9 µM
GI50 [18]: 8.26 µM
TGI [18]: > 100 µM
GI50 [19]: 14.1 µM
TGI [19]: 83.3 µM
GI50 [20]: 6.35 µM
TGI [20]: 25.8 µM
GI50 [21]: 18.2 µM
TGI [21]: > 88.3 µM
GI50 [22]: 14.8 µM
TGI [22]: 45.1 µM
GI50 [23]: 7.33 µM
TGI [23]: 25.9 µM
GI50 [24]: 15 µM
TGI [24]: > 72.5 µM
GI50 [25]: 14.5 µM
TGI [25]: 44.6 µM
GI50 [26]: 9.91 µM
TGI [26]: > 80.4 µM
GI50 [27]: 4.79 µM
TGI [27]: > 46.1 µM
GI50 [28]: 10.1 µM
TGI [28]: 25.6 µM
GI50 [29]: 13.3 µM
TGI [29]: 34.6 µM
GI50 [30]: 4.62 µM
TGI [30]: > 73.9 µM
GI50 [31]: 15.6 µM
TGI [31]: > 76 µM
GI50 [32]: 12.2 µM
TGI [32]: 37.5 µM
GI50 [33]: 11.7 µM
TGI [33]: 29.8 µM
GI50 [34]: 9.9 µM
TGI [34]: 30.9 µM
GI50 [35]: 13.2 µM
TGI [35]: 45.7 µM
GI50 [36]: 19 µM
TGI [36]: 99.1 µM
GI50 [37]: 12.3 µM
TGI [37]: 49.7 µM
GI50 [38]: 19.6 µM
TGI [38]: > 75.1 µM
GI50 [39]: 11.4 µM
TGI [39]: 35.6 µM
GI50 [40]: 14.5 µM
TGI [40]: 39.1 µM
GI50 [41]: 2.73 µM
TGI [41]: > 100 µM
GI50 [42]: 16.3 µM
TGI [42]: > 67.8 µM
GI50 [43]: 2.76 µM
TGI [43]: > 23.8 µM
GI50 [44]: 13.6 µM
TGI [44]: 38 µM
GI50 [45]: 15 µM
TGI [45]: 31.3 µM
GI50 [46]: 10.8 µM
TGI [46]: 29.8 µM
GI50 [47]: 7.37 µM
TGI [47]: 30.7 µM
GI50 [48]: 4.34 µM
TGI [48]: 38.8 µM
GI50 [49]: 6.3 µM
TGI [49]: 21.8 µM
GI50 [50]: 5.9 µM
TGI [50]: 42.3 µM
GI50 [51]: 8.99 µM
TGI [51]: 29.8 µM
GI50 [52]: 6.58 µM
TGI [52]: > 46.7 µM
GI50 [53]: 5.55 µM
TGI [53]: 33.3 µM
GI50 [54]: 22.7 µM
TGI [54]: > 100 µM
GI50 [55]: 13.5 µM
TGI [55]: > 52.3 µM
GI50 [56]: 9.2 µM
TGI [56]: 40.5 µM
GI50 [57]: 9.46 µM
TGI [57]: > 90.9 µM
GI50 [58]: 2.11 µM
TGI [58]: 11.1 µM
